{
  "source": "patent US20130345215A1",
  "about": "“PYRAZOLOPYRIMIDONE AND PYRAZOLOPYRIDONE INHIBITORS OF TANKYRASE” (Genentech, Inc., priority 2012, published 2013)",
  "key": {"Tankyrase 1 (TNKS1)": {"target": "T1, Tankyrase 1 (TNKS1) (Homo sapiens, UniProt O95271)", "T1 construct": "His6-TNKS1, MW=28.2 KDa (construct: 1088-1327, 1266M)", "T1 sequence (O95271 1088-1327)": "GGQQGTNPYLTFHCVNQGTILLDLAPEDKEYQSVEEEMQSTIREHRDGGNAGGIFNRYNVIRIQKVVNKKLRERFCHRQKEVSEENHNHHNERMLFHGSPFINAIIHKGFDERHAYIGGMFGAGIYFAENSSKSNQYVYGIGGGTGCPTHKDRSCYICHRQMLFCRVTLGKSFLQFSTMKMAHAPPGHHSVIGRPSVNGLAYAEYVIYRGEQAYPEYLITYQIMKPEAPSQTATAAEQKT", "assay": "μHTS-TNKS-IWR2 TR-FRET Binding Assay (Example 118), His6-TNKS1", "experimental": "(§1) μHTS-TNKS-IWR2 TR-FRET Binding Assay (10 μL/well in BD1536-well plate, a single point)\n(§2) Reagents and Stock Solutions\n(§3) Biotin-4-((1S,2R,6S,7R)-3,5-Dioxo-4-aza-tricyclo[5.2.1.0*2,6]dec-8-en-4-yl)-N-(4-methyl-quinolin-8-yl)-benzamide (Biotin-IWR2): 10 mM Biotin-IWR2 stock in DMSO, stored at −20° C.\n(XAV939) in DMSO, stored at −20° C.\n(§4) Assay buffer 1a (AB1a) for TNKS dilution: 50 mM Tris, pH 7.4, 100 mM sodium chloride solution, 1 mM magnesium chloride solution, 1 mM DL-dithiothreitol solution, 0.2 mg/mL bovine serum albumin solution, 0.025% NP-40.\n(§5) Assay buffer 1b (AB1b) for Biotin-IWR2 dilution: 50 mM Tris, pH 7.4, 100 mM sodium chloride solution, 1 mM magnesium chloride solution, 1 mM DL-dithiothreitol solution, 0.2 mg/mL bovine serum albumin solution, 0.05% NP-40\n(§6) Assay buffer 1c (AB1c) for compound dilution: 50 mM Tris, pH 7.4, 100 mM sodium chloride solution, 1 mM magnesium chloride solution, 1 mM DL-dithiothreitol solution, 0.2 mg/mL bovine serum albumin solution\n(§7) Assay buffer 2 (AB2) for Eu/APC: 50 mM Tris, pH 7.4, 100 mM sodium chloride solution, 1 mM magnesium chloride solution, 0.2 mg/mL bovine serum albumin solution\n(§8) Reagent Stock Solution Preparation\n(§9) Prepare BLANK well stock solution: 5% DMSO/AB1b buffer\n(§10) Prepare TNKS 1 stock solution (5× stock): 300 nM TNKS in AB1a buffer. (Alternatively, use TNKS2 or PARP1 stock solutions.)\nTransfer 3 μL/well of above solution (solution 1,2,3) to an empty assay plate (BD1536-well plate) as follows: • TOTAL and cpd wells: Solution 1 (Biotin-IWR2): • BLANK wells: Solution 2 (No Biotin-IWR2): • POSITIVE CONTROL wells: Solution 3 (Biotin-IWR2+XAV939)\n(§11) Transfer 3 μL/well of the above diluted compound solutions or compound dilution buffer to the above assay plate. Add 2 μL/well of 300 nM TNKS stock solution (4) to every well in the above assay plate. Centrifuge the assay plate at 2100 rpm for 2 min. Incubate the assay plate at 26° C. for 30 minutes. Add 2 μL/well 3.5 nMEu/50 nM APC solution (5) to every well in the above assay plate. Centrifuge the assay plate at 2100 rpm for 2 min. Incubate the assay plate at 26° C. for 60 min."}, "tankyrase 2 (TNKS2)": {"target": "T2, tankyrase 2 (TNKS2) (Homo sapiens, UniProt Q9H2K2)", "T2 construct": "His6-tankyrase 2 (construct: 934-1166) (His6-TNKS2)", "T2 sequence (Q9H2K2 934-1166)": "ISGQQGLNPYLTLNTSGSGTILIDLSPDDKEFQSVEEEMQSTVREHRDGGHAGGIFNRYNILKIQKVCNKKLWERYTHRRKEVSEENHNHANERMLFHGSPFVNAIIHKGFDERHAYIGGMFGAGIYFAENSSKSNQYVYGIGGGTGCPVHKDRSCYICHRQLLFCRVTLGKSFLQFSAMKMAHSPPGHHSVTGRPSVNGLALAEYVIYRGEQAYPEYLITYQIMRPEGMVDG", "assay": "μHTS-TNKS-IWR2 TR-FRET Binding Assay (Example 118), His6-TNKS2 substituted", "conditions": "procedure in Example 118 with His6-TNKS2", "experimental": "as §1, §2\nTankyrase 1 (TNKS1): 184.3 μM=5.2 mg/mL His6-TNKS1, MW=28.2 KDa (construct: 1088-1327, 1266M) in 20 mM Tris pH 8, 150 mM NaCl, 10% glycerol, and 0.5 mM TCEP. Alternatively, His6-tankyrase 2 (construct: 934-1166) (His6-TNKS2) or His6-PARP1 (full length) can be substituted for His6-TNKS 1.\nas §3\nPositive control: 10 mM 2-(4-Trifluoromethyl-phenyl)-3,5,7,8-tetrahydro-thiopyrano[4,3-d]pyrimidin-4-one (XAV939) in DMSO, stored at −20° C.\nAPC-anti-His Ab: 8.50 μM SL-APC, 8.26 μM anti-6His antibody-SureLight APC (Columia Bioscience, Catalog Number D3-1711, Lot Number N01010-AAH04)\nAssay plate: BD 1536-well, clear/black plate (Catalog Number 353255)\nas §4, §5, §6, §7, §8\nPrepare Biotinylated IWR2 stock solution (3.33× stock) for TOTL and compound wells: 200 nM Biotin-IWR2 in 5% DMSO/AB1b buffer\nas §9\nPrepare POSITIVE CONTROL well stock solution (3.33× stock): 200 nM XAV939 in 200 nM Biotin-IWR2/5% DMSO/AB1b buffer\nas §10\nPrepare Eu/APC stock solution (5× stock): 3.5 nM Eu-SA/50 nM APC-His6Ab in AB2 buffer.\nAdd 25 μL/well 1.5% DMSO/AB1c buffer in each compound well to the compound concentration at 74 μM in 8.8% DMSO/AB1c buffer or in the 2 μL DMSO CONTROL wells (BLANK, TOTAL and POSITIVE wells) in the compound plate. Transfer 3 μL/well of above solution (solution 1,2,3) to an empty assay plate (BD1536-well plate) as follows: • TOTAL and cpd wells: Solution 1 (Biotin-IWR2): • BLANK wells: Solution 2 (No Biotin-IWR2): • POSITIVE CONTROL wells: Solution 3 (Biotin-IWR2+XAV939)\nas §11, with “60 min. Read the assay plate immediately at excitation wavelength of 330 nm and emission wavelength of […] in time resolved fluorescence mode.” for “60 min.”\nXAV939 (+ve control): 60 nM at ˜70% Inhibition\nGeneral Library compounds: 22.23 μM in 4% DMSO"}},
  "note": "pIC50: −log10 of the molar value. Read-outs that look alike come from different tables or passages of the source.",
  "data": [
    {"molecule": "Cn1ncc2c(=O)[nH]c(N3CCC(O)(c4ccccc4)CC3)nc21", "note": "[Compound I-23, 6-(4-hydroxy-4-phenyl-1-piperidyl)-1-methyl-5H-pyrazolo[3 4-d]pyrimidin-4-one]", "values": [
      {"measurement": "pIC50", "setting": "Tankyrase 1 (TNKS1)", "result": 7.24},
      {"measurement": "pIC50", "setting": "tankyrase 2 (TNKS2)", "result": 7.18}
    ]},
    {"molecule": "Cn1ncc2c(=O)[nH]c(N3CCN(c4ccccc4F)CC3)nc21", "note": "[Compound I-3, 6-[4-(2-fluorophenyl)piperazin-1-yl]-1-methyl-5H-pyrazolo[3 4-d]pyrimidin-4-one]", "values": [
      {"measurement": "pIC50", "setting": "Tankyrase 1 (TNKS1)", "result": 7.57},
      {"measurement": "pIC50", "setting": "tankyrase 2 (TNKS2)", "result": 7.46}
    ]},
    {"molecule": "Cn1ncc2c(=O)[nH]c(N3CCC(C#N)(c4ccc(F)cc4)CC3)nc21", "note": "[Compound I-33, 4-(4-fluorophenyl)-1-(1-methyl-4-oxo-5H-pyrazolo[3 4-d]pyrimidin-6-yl)piperidine-4-carbonitrile]", "values": [
      {"measurement": "pIC50", "setting": "Tankyrase 1 (TNKS1)", "result": 7.49},
      {"measurement": "pIC50", "setting": "tankyrase 2 (TNKS2)", "result": 7.66}
    ]},
    {"molecule": "O=c1[nH]c(N2CCN(c3ccccc3F)CC2)nc2[nH]ncc12", "note": "[Compound I-10, 6-[4-(2-fluorophenyl)piperazin-1-yl]-1 5-dihydropyrazolo[3 4-d]pyrimidin-4-one]", "values": [
      {"measurement": "pIC50", "setting": "Tankyrase 1 (TNKS1)", "result": 6.83},
      {"measurement": "pIC50", "setting": "tankyrase 2 (TNKS2)", "result": 6.42}
    ]},
    {"molecule": "COCCOc1cc(F)c(N2CCN(c3nc4c(cnn4C)c(=O)[nH]3)CC2)c(F)c1", "note": "[Compound I-1, 6-[4-[2 6-difluoro-4-(2-methoxyethoxy)phenyl]piperazin-1-yl]-1-methyl-5H-pyrazolo[3 4-d]pyrimidin-4-one]", "values": [
      {"measurement": "pIC50", "setting": "Tankyrase 1 (TNKS1)", "result": 8.12},
      {"measurement": "pIC50", "setting": "tankyrase 2 (TNKS2)", "result": 7.61}
    ]},
    {"molecule": "Cn1ncc2c(=O)[nH]c(N3CCC(c4ccc(F)cc4)CC3)nc21", "note": "[Compound I-5, 6-[4-(4-fluorophenyl)-1-piperidyl]-1-methyl-5H-pyrazolo[3 4-d]pyrimidin-4-one]", "values": [
      {"measurement": "pIC50", "setting": "Tankyrase 1 (TNKS1)", "result": 7.51},
      {"measurement": "pIC50", "setting": "tankyrase 2 (TNKS2)", "result": 7.42}
    ]},
    {"molecule": "Cn1ncc2c(=O)[nH]c(N3CCN(c4ccc(-c5nnn[nH]5)cc4F)CC3)nc21", "note": "[Compound I-31, 6-[4-[2-fluoro-4-(1H-tetrazol-5-yl)phenyl]piperazin-1-yl]-1-methyl-5H-pyrazolo[3 4-d]pyrimidin-4-one]", "values": [
      {"measurement": "pIC50", "setting": "Tankyrase 1 (TNKS1)", "result": 7.59},
      {"measurement": "pIC50", "setting": "tankyrase 2 (TNKS2)", "result": 7.61}
    ]},
    {"molecule": "CCC(=O)c1cc(F)c(N2CCN(c3nc4c(cnn4C)c(=O)[nH]3)CC2)c(F)c1", "note": "[Compound I-45, 6-[4-(2 6-difluoro-4-propanoyl-phenyl)piperazin-1-yl]-1-methyl-5H-pyrazolo[3 4-d]pyrimidin-4-one]", "values": [
      {"measurement": "pIC50", "setting": "Tankyrase 1 (TNKS1)", "result": 7.55},
      {"measurement": "pIC50", "setting": "tankyrase 2 (TNKS2)", "result": 7.48}
    ]},
    {"molecule": "6-[4-(4-fluorophenyl)-1- piperidyl]-1-methyl-5H- pyrazolo[4 3-c]pyridin-4- one [Compound I-8]", "values": [
      {"measurement": "pIC50", "setting": "Tankyrase 1 (TNKS1); Compounds I-1 to I-58, procedure in Example 118 (TR-FRET, Biotin-IWR2 60 nM, TNKS 60 nM), read-out: TNKS1 (IC50)", "result": 7.38},
      {"measurement": "pIC50", "setting": "tankyrase 2 (TNKS2)", "result": 7.37}
    ]},
    {"molecule": "Cn1ncc2c(=O)[nH]c(-c3ccc(C(F)(F)F)cn3)nc21", "note": "[Compound I-50, 1-methyl-6-[5-(trifluoromethyl)-2-pyridyl]-5H-pyrazolo[3 4-d]pyrimidin-4-one]", "values": [
      {"measurement": "pIC50", "setting": "Tankyrase 1 (TNKS1)", "result": 6.54},
      {"measurement": "pIC50", "setting": "tankyrase 2 (TNKS2)", "result": 6.49}
    ]},
    {"molecule": "O=c1[nH]c(N2CCN(c3ccccc3F)CC2)cc2[nH]ncc12", "note": "[Compound I-12, 6-[4-(2-fluorophenyl)piperazin-1-yl]-1 5-dihydropyrazolo[4 3-c]pyridin-4-one]", "values": [
      {"measurement": "pIC50", "setting": "Tankyrase 1 (TNKS1)", "result": 6.98},
      {"measurement": "pIC50", "setting": "tankyrase 2 (TNKS2)", "result": 6.75}
    ]},
    {"molecule": "Cn1ncc2c(=O)[nH]c(N3CCN(C4CCS(=O)(=O)C4)CC3)nc21", "note": "(stereo not drawn) [Compound I-36, 6-[4-(1 1-dioxothiolan-3-yl)piperazin-1-yl]-1-methyl-5H-pyrazolo[3 4-d]pyrimidin-4-one]", "values": [
      {"measurement": "pIC50", "setting": "Tankyrase 1 (TNKS1)", "result": 5.71},
      {"measurement": "pIC50", "setting": "tankyrase 2 (TNKS2)", "result": 5.80}
    ]},
    {"molecule": "Cn1ncc2c(=O)[nH]c(N3CCN(c4ccc(C(=O)O)cc4F)CC3)nc21", "note": "[Compound I-40, 3-fluoro-4-[4-(1-methyl-4-oxo-5H-pyrazolo[3 4-d]pyrimidin-6-yl)piperazin-1-yl]benzoic acid]", "values": [
      {"measurement": "pIC50", "setting": "Tankyrase 1 (TNKS1)", "result": 7.39},
      {"measurement": "pIC50", "setting": "tankyrase 2 (TNKS2)", "result": 7.40}
    ]},
    {"molecule": "Cn1ncc2c(=O)[nH]c(N3CCN(c4c(F)cc(N)cc4F)CC3)nc21", "note": "[Compound I-54, 6-[4-(4-amino-2 6-difluoro-phenyl)piperazin-1-yl]-1-methyl-5H-pyrazolo[3 4-d]pyrimidin-4-one]", "values": [
      {"measurement": "pIC50", "setting": "Tankyrase 1 (TNKS1)", "result": 7.68},
      {"measurement": "pIC50", "setting": "tankyrase 2 (TNKS2)", "result": 7.60}
    ]},
    {"molecule": "Cn1ncc2c(=O)[nH]c(N3CCC(C#N)(c4ccccc4)CC3)nc21", "note": "[Compound I-24, 1-(1-methyl-4-oxo-5H-pyrazolo[3 4-d]pyrimidin-6-yl)-4-phenyl-piperidine-4-carbonitrile]", "values": [
      {"measurement": "pIC50", "setting": "Tankyrase 1 (TNKS1)", "result": 7.57},
      {"measurement": "pIC50", "setting": "tankyrase 2 (TNKS2)", "result": 7.48}
    ]}
  ]
}
